In ChEMBL document CHEMBL1201862, “PubChem BioAssay data set” (2004):
Activity calls are given as the source filed them.

Tests used:
[1] = biological target: G2/mitotic-specific cyclin-B1 (Homo sapiens, UniProt P14635); assay: Counterscreen assay for inhibitors of Wee1 degradation: dose response cell-based assay to identify inhibitors of cyclin B degradation. [Related pubchem assays: 1410, 1321 ]; type: functional
[2] = biological target: Wee1-like protein kinase (Homo sapiens, UniProt P30291); assay: Dose Response Cell-based Assay for Inhibitors of Wee1 Degradation. [Related pubchem assays: 1410, 1321 ]; type: functional
[3] = biological target: G-protein coupled receptor 55 (Homo sapiens, UniProt Q9Y2T6); assay: inhibition of LPI-stimulated GPR55 beta-arrestin translocation – imaging, U2OS, beta-arrestin-GFP, LPI agonist, primary screen (AID 2013); type: functional;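 also: antagonist potency measured as reduced agonist-driven arrestin aggregation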
Sequence of G-protein coupled receptor 55 (Q9Y2T6 whole entry): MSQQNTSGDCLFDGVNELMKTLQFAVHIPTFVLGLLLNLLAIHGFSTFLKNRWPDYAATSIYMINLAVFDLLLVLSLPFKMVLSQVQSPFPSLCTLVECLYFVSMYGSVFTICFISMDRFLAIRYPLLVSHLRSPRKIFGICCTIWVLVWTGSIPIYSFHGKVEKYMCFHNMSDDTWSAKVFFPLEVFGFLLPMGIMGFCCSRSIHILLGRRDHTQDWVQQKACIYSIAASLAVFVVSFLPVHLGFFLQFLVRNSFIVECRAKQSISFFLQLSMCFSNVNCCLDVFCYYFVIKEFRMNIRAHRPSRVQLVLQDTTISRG

[4] = biological target: Peroxisome proliferator-activated receptor gamma/Nuclear receptor coactivator 2 (Homo sapiens, UniProt P37231); type: functional;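 also: agonist potency for raising coactivator recruitment to the receptor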
Sequence of Peroxisome proliferator-activated receptor gamma/Nuclear receptor coactivator 2 (P37231 whole entry): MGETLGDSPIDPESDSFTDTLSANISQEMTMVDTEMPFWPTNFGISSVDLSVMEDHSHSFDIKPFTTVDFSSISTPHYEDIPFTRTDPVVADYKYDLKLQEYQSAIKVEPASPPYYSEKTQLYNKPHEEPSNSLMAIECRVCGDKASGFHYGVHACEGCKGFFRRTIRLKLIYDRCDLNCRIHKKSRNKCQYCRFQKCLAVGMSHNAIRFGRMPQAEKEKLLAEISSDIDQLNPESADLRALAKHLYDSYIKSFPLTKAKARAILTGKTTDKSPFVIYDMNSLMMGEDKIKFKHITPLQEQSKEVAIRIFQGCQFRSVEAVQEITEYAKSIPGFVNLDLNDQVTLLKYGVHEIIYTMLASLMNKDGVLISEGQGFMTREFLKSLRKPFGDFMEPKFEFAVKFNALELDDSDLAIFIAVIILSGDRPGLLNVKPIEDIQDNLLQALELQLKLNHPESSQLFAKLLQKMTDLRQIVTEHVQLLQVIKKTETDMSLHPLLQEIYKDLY
Sequence of Peroxisome proliferator-activated receptor gamma/Nuclear receptor coactivator 2 (Q15596 whole entry, further chain): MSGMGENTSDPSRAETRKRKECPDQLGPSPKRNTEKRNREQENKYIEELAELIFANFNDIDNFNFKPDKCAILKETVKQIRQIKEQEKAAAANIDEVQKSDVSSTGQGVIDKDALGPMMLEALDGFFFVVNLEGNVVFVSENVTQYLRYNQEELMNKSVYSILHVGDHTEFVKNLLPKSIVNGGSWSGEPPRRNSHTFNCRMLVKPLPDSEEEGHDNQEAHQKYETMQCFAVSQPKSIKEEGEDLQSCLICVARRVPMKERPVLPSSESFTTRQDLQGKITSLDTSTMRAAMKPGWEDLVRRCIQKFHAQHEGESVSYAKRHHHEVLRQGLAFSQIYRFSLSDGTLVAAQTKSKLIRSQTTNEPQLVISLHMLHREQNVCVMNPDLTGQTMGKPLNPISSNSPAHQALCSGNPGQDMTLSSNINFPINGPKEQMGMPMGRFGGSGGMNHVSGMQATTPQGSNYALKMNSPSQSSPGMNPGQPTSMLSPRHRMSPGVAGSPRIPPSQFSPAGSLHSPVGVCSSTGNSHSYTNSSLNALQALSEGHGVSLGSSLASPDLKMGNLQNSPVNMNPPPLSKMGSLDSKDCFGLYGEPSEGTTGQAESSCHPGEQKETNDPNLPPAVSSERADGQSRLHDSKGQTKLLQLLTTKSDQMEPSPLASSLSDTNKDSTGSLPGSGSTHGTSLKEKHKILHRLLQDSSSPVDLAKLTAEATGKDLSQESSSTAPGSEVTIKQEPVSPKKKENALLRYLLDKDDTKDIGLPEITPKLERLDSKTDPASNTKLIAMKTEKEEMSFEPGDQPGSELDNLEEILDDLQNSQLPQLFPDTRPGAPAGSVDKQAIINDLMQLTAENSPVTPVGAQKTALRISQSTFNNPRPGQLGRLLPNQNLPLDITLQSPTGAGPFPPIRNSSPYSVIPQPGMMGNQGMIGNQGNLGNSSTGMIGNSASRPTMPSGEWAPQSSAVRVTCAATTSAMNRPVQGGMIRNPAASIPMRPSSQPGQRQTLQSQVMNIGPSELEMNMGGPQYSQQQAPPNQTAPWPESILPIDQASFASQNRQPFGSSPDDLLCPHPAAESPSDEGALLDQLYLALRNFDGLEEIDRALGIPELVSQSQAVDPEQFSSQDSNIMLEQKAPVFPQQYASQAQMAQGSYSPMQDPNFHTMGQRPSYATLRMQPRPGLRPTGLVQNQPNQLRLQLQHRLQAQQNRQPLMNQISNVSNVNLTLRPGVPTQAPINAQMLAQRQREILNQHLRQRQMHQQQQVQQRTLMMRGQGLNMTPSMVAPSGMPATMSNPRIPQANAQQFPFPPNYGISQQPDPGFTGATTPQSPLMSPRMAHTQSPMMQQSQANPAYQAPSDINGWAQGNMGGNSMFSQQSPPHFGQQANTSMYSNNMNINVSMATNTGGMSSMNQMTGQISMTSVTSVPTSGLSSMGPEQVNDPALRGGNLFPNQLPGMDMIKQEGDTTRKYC

[5] = biological target: Peroxisome proliferator-activated receptor gamma/Nuclear receptor coactivator 1 (Homo sapiens, UniProt P37231); type: functional;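 also: agonist potency as compounds enhance coactivator SRC-1 recruitment to PPARgamma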
[6] = biological target: Peroxisome proliferator-activated receptor gamma/Nuclear receptor coactivator 3 (Homo sapiens, UniProt P37231); type: functional;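 also: agonist potency for raising coactivator recruitment to the receptor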
[7] = biological target: Aspartyl aminopeptidase (Plasmodium falciparum 3D7, UniProt Q8I2J3)
[8] = biological target: Procathepsin L (Homo sapiens, UniProt P07711)
[9] = biological target: T1, Aminopeptidase N (Plasmodium falciparum FcB1/Columbia, UniProt O96935); assay: malaria alanyl aminopeptidase activity blockers – biochemical, fluorogenic H-Leu-NHMec substrate, 1536-well (AID 1445); parameters: species or system Plasmodium falciparum 3D7, 3D7
T1 sequence (O96935 whole entry): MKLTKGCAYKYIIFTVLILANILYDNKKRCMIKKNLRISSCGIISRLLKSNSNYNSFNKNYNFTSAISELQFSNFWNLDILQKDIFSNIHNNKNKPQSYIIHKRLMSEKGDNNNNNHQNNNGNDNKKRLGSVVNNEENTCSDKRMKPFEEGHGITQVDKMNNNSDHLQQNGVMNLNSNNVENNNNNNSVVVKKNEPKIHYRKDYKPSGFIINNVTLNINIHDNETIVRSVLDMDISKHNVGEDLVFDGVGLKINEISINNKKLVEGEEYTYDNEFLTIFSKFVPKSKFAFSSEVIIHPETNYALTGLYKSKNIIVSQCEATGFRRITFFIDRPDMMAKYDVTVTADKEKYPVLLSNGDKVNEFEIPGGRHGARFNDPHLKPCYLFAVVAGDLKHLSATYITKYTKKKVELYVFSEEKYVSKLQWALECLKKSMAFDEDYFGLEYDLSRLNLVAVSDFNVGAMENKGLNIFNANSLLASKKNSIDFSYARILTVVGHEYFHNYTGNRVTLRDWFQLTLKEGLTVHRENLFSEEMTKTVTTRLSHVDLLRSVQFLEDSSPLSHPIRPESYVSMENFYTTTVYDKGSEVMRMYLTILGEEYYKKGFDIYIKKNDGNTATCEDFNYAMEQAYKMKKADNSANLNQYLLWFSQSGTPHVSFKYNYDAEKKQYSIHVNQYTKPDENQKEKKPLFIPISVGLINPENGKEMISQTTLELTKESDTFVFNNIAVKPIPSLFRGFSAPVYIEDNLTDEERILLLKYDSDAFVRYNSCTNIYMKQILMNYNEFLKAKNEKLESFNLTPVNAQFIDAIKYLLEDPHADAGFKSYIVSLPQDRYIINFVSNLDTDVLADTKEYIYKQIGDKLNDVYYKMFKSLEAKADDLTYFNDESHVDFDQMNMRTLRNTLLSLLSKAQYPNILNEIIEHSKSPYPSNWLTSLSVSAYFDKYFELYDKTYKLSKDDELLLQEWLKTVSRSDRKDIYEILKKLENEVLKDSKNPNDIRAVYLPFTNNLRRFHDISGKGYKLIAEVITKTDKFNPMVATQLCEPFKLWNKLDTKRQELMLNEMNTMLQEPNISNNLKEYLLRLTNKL

[10] = test system: Streptococcus sp. 'group A'; assay: Streptococcus pyogenes SK(-)GAS viability under kanamycin – luminescence, BacTiterGlo, confirmation, counter-screen for streptokinase expression inhibitor project, dose response (AID 1900); type: functional, organism-based
[11] = biological target: Transitional endoplasmic reticulum ATPase (Homo sapiens, UniProt P55072, C522A); assay: C522A mutant p97 ATPase inhibitors, dose response, counter-screen for p97 inhibitor project, biochemical, luminescence (AID 1544)
[12] = biological target: T2, Streptokinase A (Streptococcus pyogenes serotype M1, UniProt P10520); assay: viability-normalized secreted streptokinase activity reduction – plasminogen activation absorbance, OD405, dose response (AID 1914); type: functional, Streptococcus pyogenes M1 GAS;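 also: secreted streptokinase activity via plasminogen activation per viability signal from cell pellet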
T2 sequence (P10520 whole entry): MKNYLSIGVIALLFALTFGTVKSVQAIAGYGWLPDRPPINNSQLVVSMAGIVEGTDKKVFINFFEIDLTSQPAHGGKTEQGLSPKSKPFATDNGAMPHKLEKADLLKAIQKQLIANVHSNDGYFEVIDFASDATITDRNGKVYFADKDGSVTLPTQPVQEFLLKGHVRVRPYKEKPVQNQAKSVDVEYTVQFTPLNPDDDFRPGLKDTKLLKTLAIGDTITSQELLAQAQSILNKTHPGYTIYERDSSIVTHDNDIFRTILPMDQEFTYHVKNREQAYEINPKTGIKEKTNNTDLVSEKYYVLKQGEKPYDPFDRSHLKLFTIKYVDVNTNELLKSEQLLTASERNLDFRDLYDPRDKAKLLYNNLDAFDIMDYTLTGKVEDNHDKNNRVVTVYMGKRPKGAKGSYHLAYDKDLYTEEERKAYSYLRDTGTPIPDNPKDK

[13] = biological target: Transitional endoplasmic reticulum ATPase (Homo sapiens, UniProt P55072); assay: p97 ATPase inhibitors, dose response, biochemical (AID 1534)
[14] = biological target: Induced myeloid leukemia cell differentiation protein Mcl-1 (Homo sapiens, UniProt Q07820); type: functional
Sequence of Induced myeloid leukemia cell differentiation protein Mcl-1 (Q07820 whole entry): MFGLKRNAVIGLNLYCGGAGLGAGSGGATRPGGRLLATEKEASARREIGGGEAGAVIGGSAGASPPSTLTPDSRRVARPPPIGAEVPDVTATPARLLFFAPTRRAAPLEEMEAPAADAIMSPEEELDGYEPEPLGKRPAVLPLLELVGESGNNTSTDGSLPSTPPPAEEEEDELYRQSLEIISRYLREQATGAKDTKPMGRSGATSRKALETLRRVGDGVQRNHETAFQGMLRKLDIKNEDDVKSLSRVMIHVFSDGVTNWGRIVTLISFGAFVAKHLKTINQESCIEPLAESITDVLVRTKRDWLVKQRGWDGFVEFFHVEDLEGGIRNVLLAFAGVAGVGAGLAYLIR

[15] = test system: Streptococcus; assay: GAS UMAA2166 growth inhibition – luminescence, BacTiterGlo, counter-screen for streptokinase expression inhibitor project, dose response (AID 1915); type: functional, organism-based;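 also: potency for reduction of bacterial viability or growth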
[16] = biological target: T3, Probable nicotinate-nucleotide adenylyltransferase (Staphylococcus aureus (strain N315), UniProt P65502); type: functional, Staphylococcus aureus subsp. aureus N315;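 as to IC50 Mean: confirmatory dose-response retesting of NadD inhibitor hits first found in an ultra-high-throughput screen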
T3 sequence (P65502 whole entry): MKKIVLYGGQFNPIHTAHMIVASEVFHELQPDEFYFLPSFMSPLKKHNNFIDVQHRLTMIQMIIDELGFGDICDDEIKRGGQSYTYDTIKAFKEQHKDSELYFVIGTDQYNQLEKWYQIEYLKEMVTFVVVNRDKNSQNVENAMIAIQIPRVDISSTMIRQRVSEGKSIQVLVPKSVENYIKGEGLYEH

[17] = biological target: T3, Probable nicotinate-nucleotide adenylyltransferase; type: functional, Staphylococcus aureus subsp. aureus N315; details: read-out: IC50_Mean
[18] = biological target: Luciferin 4-monooxygenase (Photinus pyralis, UniProt P08659); assay: Counter Screen for Luciferase-based Assay Positives. [Related pubchem assays: 620, 618, 411 ]
[19] = test system: HT-1080; assay: HT1080 cell viability loss – fluorescence readout (AID 620); type: functional, cell-based; details: Homo sapiens
[20] = HEK-293T viability loss after treatment – luminescence, T-cell screen hits, cytotoxicity control for TCR NF-kB inhibitor project, dose response (AID 489026); type: functional, cell-based;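 also: cells exposed to compound about 14 hours before the viability readout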
[21] = blockers of HIV-1 envelope-mediated cell-cell fusion – cherry-pick, dose response (AID 652057); type: functional, cell-based
[22] = blockers of HIV-1 ZM109 envelope-driven cell-cell fusion – HeLa effector, CEM target cells, luciferase, cherry-pick, dose response (AID 652058); type: functional, cell-based;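 also: luciferase signal from HIV-1 Env mediated cell-cell fusion of effector and target cells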
[23] = off-target signal loss in HeLa-CEM21 co-culture – HeLa F-luc CTL cells, cherry-picked, counter-screen for HIV-1 Env fusion inhibitor project, dose response (AID 652040); type: functional, cell-based;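 also: potency for signal decrease marking cytotoxic or nonspecific inhibition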
[24] = HIV-1 AD8 envelope cell-cell fusion blockers – cherry-pick, dose response (AID 652062); type: functional, cell-based;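 also: luciferase signal from cell-cell fusion driven by HIV-1 clade B AD8 Env; potency is for inhibitors of fusion seen as a drop in luminescence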
[25] = test system: Streptococcus; assay: Luminescence Microorganism-Based Dose Response Follow up to Identify Compounds Cytotoxic to Streptococcus. [Related pubchem assays: 1677 (Project Summary), 1915, 1914, 1902 (Retest at Dose), 1900 (Counter Screen), 1662 (Primary HTS)]; type: functional, organism-based
[26] = biological target: Epstein-Barr nuclear antigen 1 (Epstein-Barr virus (strain B95-8) (HHV-4) (Human herpesvirus 4), UniProt P03211); assay: inhibition of EBV nuclear antigen 1 DNA binding – biochemical, fluorescence polarization, 1536-well, dose response (AID 2381); parameters: species or system human gammaherpesvirus 4;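 also: fluorescence polarization of a Cy5 DNA probe bound by EBNA-1 protein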
[27] = biological target: Lytic switch protein BZLF1 (Epstein-Barr virus (strain B95-8) (HHV-4) (Human herpesvirus 4), UniProt P03206); assay: inhibition of BZLF1 ZTA DNA binding – biochemical, fluorescence polarization, Epstein-Barr virus, 1536-well, counter-screen for EBNA-1 inhibitor project, dose response (AID 2377); parameters: species or system human gammaherpesvirus 4;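 also: fluorescence polarization of Cy5-labelled ZRE DNA probe bound by purified Zta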
Sequence of Lytic switch protein BZLF1 (P03206 whole entry): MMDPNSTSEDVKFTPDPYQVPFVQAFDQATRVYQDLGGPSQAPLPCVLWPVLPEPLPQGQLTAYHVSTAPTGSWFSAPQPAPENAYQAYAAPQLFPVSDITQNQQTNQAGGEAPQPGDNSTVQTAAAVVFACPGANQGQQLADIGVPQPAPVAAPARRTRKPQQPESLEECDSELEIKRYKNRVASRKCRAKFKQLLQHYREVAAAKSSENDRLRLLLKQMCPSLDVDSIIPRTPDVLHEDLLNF

[28] = biological target: Cytochrome P450 2C9 (Homo sapiens, UniProt P11712); details: Potency
[29] = biological target: Cytochrome P450 3A4 (Homo sapiens, UniProt P08684); details: Potency;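 also: confirmatory qHTS run detecting inhibitors and substrates of CYP3A4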
[30] = biological target: T4, Heat shock 70 kDa protein 1A (Homo sapiens, UniProt P0DMV8); assay: small-molecule inhibition of Hsp70 – biochemical, TR-FRET (AID 786)
T4 sequence (P0DMV8 whole entry): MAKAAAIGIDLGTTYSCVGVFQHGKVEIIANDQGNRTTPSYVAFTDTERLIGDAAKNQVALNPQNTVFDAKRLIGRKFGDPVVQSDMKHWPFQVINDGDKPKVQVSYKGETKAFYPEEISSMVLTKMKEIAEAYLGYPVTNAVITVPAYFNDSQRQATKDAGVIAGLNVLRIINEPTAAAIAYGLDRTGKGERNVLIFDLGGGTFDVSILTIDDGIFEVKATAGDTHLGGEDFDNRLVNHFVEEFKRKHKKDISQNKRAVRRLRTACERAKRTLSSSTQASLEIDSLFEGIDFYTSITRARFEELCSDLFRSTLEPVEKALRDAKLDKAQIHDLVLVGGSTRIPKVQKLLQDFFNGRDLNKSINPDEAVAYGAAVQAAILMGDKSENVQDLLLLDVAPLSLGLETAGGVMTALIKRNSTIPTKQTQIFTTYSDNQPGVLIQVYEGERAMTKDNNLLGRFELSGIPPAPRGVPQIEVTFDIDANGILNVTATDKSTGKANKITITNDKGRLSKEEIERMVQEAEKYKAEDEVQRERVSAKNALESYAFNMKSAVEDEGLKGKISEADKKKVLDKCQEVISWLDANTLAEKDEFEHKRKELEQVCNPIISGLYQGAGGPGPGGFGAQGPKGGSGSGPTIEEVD

[31] = biological target: T4, Heat shock 70 kDa protein 1A; assay: small molecules displacing fluorescent ligand from Hsp70 – biochemical, fluorescence polarization, primary screen (AID 583)
[32] = biological target: T5, Estrogen receptor (Homo sapiens, UniProt P03372);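 also: potency for inhibiting coactivator peptide recruitment to the receptor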
T5 sequence (P03372 whole entry): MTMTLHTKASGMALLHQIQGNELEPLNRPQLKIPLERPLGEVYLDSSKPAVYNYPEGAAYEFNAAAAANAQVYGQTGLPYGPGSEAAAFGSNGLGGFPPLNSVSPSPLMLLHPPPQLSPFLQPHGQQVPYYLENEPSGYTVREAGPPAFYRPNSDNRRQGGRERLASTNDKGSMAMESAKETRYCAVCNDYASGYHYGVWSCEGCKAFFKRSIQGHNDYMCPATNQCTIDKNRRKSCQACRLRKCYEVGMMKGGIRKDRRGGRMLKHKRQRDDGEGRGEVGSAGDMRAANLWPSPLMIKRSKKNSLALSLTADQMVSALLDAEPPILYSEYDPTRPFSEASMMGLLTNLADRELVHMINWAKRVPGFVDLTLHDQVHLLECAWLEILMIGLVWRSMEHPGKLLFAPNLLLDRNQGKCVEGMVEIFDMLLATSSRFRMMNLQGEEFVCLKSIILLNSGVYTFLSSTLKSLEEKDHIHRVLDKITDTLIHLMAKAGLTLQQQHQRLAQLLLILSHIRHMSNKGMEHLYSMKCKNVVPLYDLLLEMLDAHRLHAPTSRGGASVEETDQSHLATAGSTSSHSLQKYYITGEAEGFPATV

[33] = biological target: T5, Estrogen receptor; assay: blockers of SRC-3 recruitment to ERα – biochemical, ELISA, streptavidin-HRP readout, orthogonal assay, confirmation (AID 1079)
[34] = biological target: Estrogen receptor beta (Homo sapiens, UniProt Q92731); assay: blockers of SRC-3 recruitment to ERβ – biochemical, ELISA, streptavidin-HRP readout, orthogonal assay, confirmation (AID 1060)
Sequence of Estrogen receptor beta (Q92731 whole entry): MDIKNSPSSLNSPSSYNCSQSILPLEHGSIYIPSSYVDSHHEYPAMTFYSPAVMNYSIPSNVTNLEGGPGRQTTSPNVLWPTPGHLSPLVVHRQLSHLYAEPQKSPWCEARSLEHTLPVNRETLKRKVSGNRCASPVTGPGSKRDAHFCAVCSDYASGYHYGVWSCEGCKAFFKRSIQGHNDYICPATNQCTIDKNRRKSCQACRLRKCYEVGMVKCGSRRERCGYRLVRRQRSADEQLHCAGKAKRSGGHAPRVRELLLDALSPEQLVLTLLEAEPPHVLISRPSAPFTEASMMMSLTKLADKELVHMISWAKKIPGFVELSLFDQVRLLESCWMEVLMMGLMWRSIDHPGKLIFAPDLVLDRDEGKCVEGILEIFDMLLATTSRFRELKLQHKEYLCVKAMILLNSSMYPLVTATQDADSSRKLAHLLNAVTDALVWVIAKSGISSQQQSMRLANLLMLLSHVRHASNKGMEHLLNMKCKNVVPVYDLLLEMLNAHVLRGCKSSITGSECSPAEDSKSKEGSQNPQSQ

Sequence of G2/mitotic-specific cyclin-B1 (P14635 whole entry): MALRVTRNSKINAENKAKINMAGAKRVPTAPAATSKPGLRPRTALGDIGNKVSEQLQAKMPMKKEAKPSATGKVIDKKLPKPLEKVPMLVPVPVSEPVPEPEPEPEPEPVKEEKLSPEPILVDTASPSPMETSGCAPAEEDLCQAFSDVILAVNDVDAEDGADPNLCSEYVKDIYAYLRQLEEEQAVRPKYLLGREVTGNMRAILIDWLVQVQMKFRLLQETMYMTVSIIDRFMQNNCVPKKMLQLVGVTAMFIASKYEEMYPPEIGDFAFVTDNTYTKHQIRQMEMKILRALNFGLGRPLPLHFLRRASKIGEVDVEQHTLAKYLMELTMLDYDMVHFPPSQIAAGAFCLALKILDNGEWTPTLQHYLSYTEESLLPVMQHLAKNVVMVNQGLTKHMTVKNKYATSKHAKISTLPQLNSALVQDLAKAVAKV

In the case of `O=C(/C=C/c1cccnc1)/C=C/c1cccnc1`, the EC50 [1] was > 49.7 µM (not active), the EC50 [2] was > 1.84 µM (active) and the IC50 [3] was 3.26 µM (active).

With `CCn1cc(CNCc2cn(C)nc2-c2ccc(C3CCCCC3)cc2)cn1` the EC50 [4] was > 79.4 µM (not active), the EC50 [5] was > 79.4 µM (not active) and the EC50 [6] was > 79.4 µM (not active).

In the case of `O=C(Nc1ccc(Cl)cc1Cl)Nn1cnnc1`, the IC50 [7] was 0.791 µM (active) and the IC50 [8] was > 59.6 µM (not active).

With `O=c1cc(-c2ccc(O)c(-c3c(O)cc(O)c4c(=O)cc(-c5ccc(O)cc5)oc34)c2)oc2cc(O)cc(O)c12` [AMENTOFLAVONE] the IC50 [9] was 108 µM (active), the EC50 [10] was 1.68 µM (active) and the IC50 [11] was > 50 µM (not active). For the same molecule, the EC50 [12] was > 150 µM (not active), the IC50 [13] was 8.98 µM (active) and the IC50 [14] was 1.63 µM (active). The EC50 [15] was > 150 µM (not active), the IC50 [16] was 9.38 µM (active) and the IC50 [17] was 29.4 µM (active).

For `Cc1ccc(C(=O)Nc2cccc(C(=O)O)c2)cc1`, the EC50 [18] was 96.3 µM (active), the EC50 [19] was > 50 µM (not active) and the IC50 [20] was > 80 µM (inactive). For the same molecule, the AC50 [21] was 1.38 µM (active), the AC50 [22] was 7.9 µM (active) and the AC50 [23] was 2.07 µM (active). The AC50 [24] was 4.84 µM (active).

With `O=[N+]([O-])c1ccccc1NCCNc1ncc(C(F)(F)F)cc1Cl` the EC50 [10] was > 150 µM (not active), the EC50 [25] was > 500 µM (not active) and the EC50 [12] was 5.57 µM (active). For the same molecule, the IC50 [26] was 16.8 µM (not active), the IC50 [27] was 23.5 µM (not active) and the EC50 [15] was > 150 µM (not active).

In the case of `Clc1ccc([C@@H](c2ccccc2Cl)C(Cl)Cl)cc1`, the AC50 [28] was 15.8 µM (inconclusive).

With `N#C/C(=C\c1ccc(O)cc1)C(=O)O` [alpha-CYANO-4-HYDROXYCINNAMIC ACID] the AC50 [29] was 31.6 µM (inconclusive).

With `CCOC(=O)N1CCN(CC(=O)Nc2cc(OCC)ccc2OCC)CC1` the IC50 [30] was > 100 µM (not active) and the IC50 [31] was > 100 µM (not active).

For `O=C(CCCn1c(=S)[nH]c2ccccc2c1=O)N1CCN(c2cccc(Cl)c2)CC1`, the IC50 [32] was 5.73 µM (active), the IC50 [33] was 0.12 µM (not active) and the IC50 [34] was > 50 µM (not active).
